{"source": "patent US20110039721A1", "about": "“METHOD FOR PREDICTION ABOUT CARCINOGENICITY OF SUBSTANCE IN RODENT” (Chemicals Evaluation and Research Institute, priority 2007, published 2011)", "key": {"[1]": {"conditions": "classification of the substance (M+/M−); cited from earlier work"}, "[2]": {"test_system": "mRNA expressed from the genes (A) to (D) in rat liver", "test": "Behavior of genes (mRNA expression level, oligo-DNA microarray) in rat liver after 28-day oral administration", "type": "in vivo", "conditions": "mRNA vs vehicle control group", "procedure,_shortened": "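Male F344 SPF rats, 5 weeks old, four per group, dosed by oral gavage once daily for 28 days with test chemical or matched-volume solvent. Liver total RNA profiled on oligo-DNA microarray. Change ≥1.5-fold or ≤1/1.5 versus vehicle counted as significant if its direction matched that seen with other carcinogens.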"}, "liver": {"test_system": "liver", "conditions": "in vivo; cited from earlier work"}, "rodent": {"test_system": "rodent", "conditions": "in vivo; cited from earlier work"}, "[3]": {"conditions": "gene group (A), Unigene No. Rn.167075"}, "[4]": {"conditions": "gene group (C), Unigene No. Rn.120914"}}}
{"smiles": "C=C(C)[C@H]1CC=C(C)CC1", "note": "[TS024, D-Limonene]", "values": [{"measurement": "Mutagenicity by Ames test", "setting": "[1]", "result": "M−"}]}
{"smiles": "O=C(O)C1C(C(=O)O)C2(Cl)C(Cl)=C(Cl)C1(Cl)C2(Cl)Cl", "note": "(stereo not drawn) [TS078, Chlorendic acid]", "values": [{"measurement": "Behavior of gene caused by administration of chemical substance, Gene No. 4846", "setting": "[2]; gene group (A), Unigene No. Rn.144554", "result": "−"}, {"measurement": "Behavior of gene caused by administration of chemical substance, Gene No. 2026", "setting": "[2]; [3]", "result": "+"}, {"measurement": "Behavior of gene caused by administration of chemical substance, Gene No. 4218", "setting": "[2]; [3]", "result": "−"}, {"measurement": "Behavior of gene caused by administration of chemical substance, Gene No. 6182", "setting": "[2]; gene group (A), Unigene No. Rn.5834", "result": "−"}, {"measurement": "Behavior of gene caused by administration of chemical substance, Gene No. 5600", "setting": "[2]; gene group (A), Unigene No. Rn.9836", "result": "−"}, {"measurement": "Behavior of gene caused by administration of chemical substance, Gene No. 1494", "setting": "[2]; gene group (B), Unigene No. Rn.1430", "result": "+"}, {"measurement": "Behavior of gene caused by administration of chemical substance, Gene No. 2045", "setting": "[2]; gene group (B), Unigene No. Rn.19329", "result": "+"}, {"measurement": "Behavior of gene caused by administration of chemical substance, Gene No. 2203", "setting": "[2]; gene group (B), Unigene No. Rn.21240", "result": "+"}, {"measurement": "Behavior of gene caused by administration of chemical substance, Gene No. 533", "setting": "[2]; gene group (C), Unigene No. Rn.106184", "result": "−"}, {"measurement": "Behavior of gene caused by administration of chemical substance, Gene No. 725", "setting": "[2]; gene group (C), Unigene No. Rn.108075", "result": "−"}, {"measurement": "Behavior of gene caused by administration of chemical substance, Gene No. 1163", "setting": "[2]; gene group (C), Unigene No. Rn.11766", "result": "+"}, {"measurement": "Behavior of gene caused by administration of chemical substance, Gene No. 4973", "setting": "[2]; gene group (C), Unigene No. Rn.118529", "result": "+"}, {"measurement": "Behavior of gene caused by administration of chemical substance, Gene No. 4095", "setting": "[2]; gene group (C), Unigene No. Rn.119024", "result": "−"}, {"measurement": "Behavior of gene caused by administration of chemical substance, Gene No. 1334", "setting": "[2]; [4]", "result": "−"}, {"measurement": "Behavior of gene caused by administration of chemical substance, Gene No. 6620", "setting": "[2]; [4]", "result": "−"}, {"measurement": "Behavior of gene caused by administration of chemical substance, Gene No. 6303", "setting": "[2]; gene group (C), Unigene No. Rn.123063", "result": "−"}, {"measurement": "Behavior of gene caused by administration of chemical substance, Gene No. 5878", "setting": "[2]; gene group (C), Unigene No. Rn.143213", "result": "−"}, {"measurement": "Behavior of gene caused by administration of chemical substance, Gene No. 1131", "setting": "[2]; gene group (C), Unigene No. Rn.144946", "result": "−"}, {"measurement": "Behavior of gene caused by administration of chemical substance, Gene No. 1562", "setting": "[2]; gene group (C), Unigene No. Rn.14744", "result": "−"}, {"measurement": "Behavior of gene caused by administration of chemical substance, Gene No. 1741", "setting": "[2]; gene group (C), Unigene No. Rn.1647", "result": "−"}, {"measurement": "Behavior of gene caused by administration of chemical substance, Gene No. 893", "setting": "[2]; gene group (C), Unigene No. Rn.164817", "result": "−"}, {"measurement": "Behavior of gene caused by administration of chemical substance, Gene No. 6026", "setting": "[2]; gene group (C), Unigene No. Rn.167685", "result": "−"}, {"measurement": "Behavior of gene caused by administration of chemical substance, Gene No. 154", "setting": "[2]; gene group (C), Unigene No. Rn.185941", "result": "−"}, {"measurement": "Behavior of gene caused by administration of chemical substance, Gene No. 1993", "setting": "[2]; gene group (C), Unigene No. Rn.18728", "result": "−"}, {"measurement": "Behavior of gene caused by administration of chemical substance, Gene No. 813", "setting": "[2]; gene group (C), Unigene No. Rn.201760", "result": "−"}, {"measurement": "Behavior of gene caused by administration of chemical substance, Gene No. 2494", "setting": "[2]; gene group (C), Unigene No. Rn.23969", "result": "−"}, {"measurement": "Behavior of gene caused by administration of chemical substance, Gene No. 2546", "setting": "[2]; gene group (C), Unigene No. Rn.24561", "result": "−"}, {"measurement": "Behavior of gene caused by administration of chemical substance, Gene No. 3776", "setting": "[2]; gene group (C), Unigene No. Rn.43232", "result": "−"}, {"measurement": "Behavior of gene caused by administration of chemical substance, Gene No. 3929", "setting": "[2]; gene group (C), Unigene No. Rn.4620", "result": "−"}, {"measurement": "Behavior of gene caused by administration of chemical substance, Gene No. 1119", "setting": "[2]; gene group (C), Unigene No. Rn.9757", "result": "−"}, {"measurement": "Behavior of gene caused by administration of chemical substance, Gene No. 6742", "setting": "[2]; gene group (C), Unigene No. Rn.9779", "result": "−"}, {"measurement": "Behavior of gene caused by administration of chemical substance, Gene No. 5634", "setting": "[2]; gene group (C), Unigene No. Rn.9862", "result": "+"}, {"measurement": "Behavior of gene caused by administration of chemical substance, Gene No. 5726", "setting": "[2]; gene group (D), Unigene No. Rn.9939", "result": "−"}, {"measurement": "Liver carcinogenicity", "setting": "liver", "result": "Cr+"}, {"measurement": "Carcinogenicity", "setting": "rodent", "result": "C+"}]}
